Measured values reported in patent publication US20250333714A1, “ARTIFICIAL DNA REPLISOME AND METHODS OF USE THEREOF” (Regents of the University of Minnesota, priority 2021, published 2025).

How the values were obtained:
[1] = tested on: kanR* gene on target plasmid; test: kanR* reversion assay (frequency of kanamycin-resistant colonies); assay type: cell-based, E. coli
Protocol: Three DNA elements were added to E. coli to create a targeted error-prone artificial replisome: a constitutively-expressed, chromosomal CisA gene, a target vector plasmid and a helper vector plasmid (FIG. 1A-1B and FIG. 5). The target vector contained the gene(s) of interest targeted for mutagenesis between the CisA initiation and termination sequences. To quantify the increase in mutagenesis, mutagenesis was targeted to the gene for a kanamycin resistance protein (aminoglycoside phosphotransferase (3)-IIIa). This gene, named kanR*, carried a single nucleotide substitution (A785C), which encodes an E262A amino acid substitution that inactivates the kanamycin resistance (Thompson et al., J Biol Chem, 274 (43): 30697-30706, (1999)). Mutations that reverse this substitution will restore gene function, allowing the cells to grow in the presence of kanamycin. Resistant colony-forming unit (CFU) per pl of full density culture (frequency of resistant CFU per cell plated) is used as a readout for mutagenic capacity. The helper plasmid contains a gene encoding the fusion of the error-prone T5 DNA polymerase to the Rep helicase under the control of a T7 promoter. (The host cell also contains a chromosomal gene to express the T7 RNA polymerase and a deletion of the chromosomal Rep gene to eliminate potential competition with the fusion protein.)
The DNA polymerase activity of the T5 DNA polymerase-Rep helicase fusion protein was measured by its capacity to mutate the target, kanR* and restore kanamycin resistance. The bacteria, in this Example, contained all three elements of the targeted error-prone artificial replisome: a constitutively-expressed, chromosomal CisA gene, the target plasmid carrying the kanR* gene flanked by the initiation and termination sequences, and the helper plasmid expressing the T5 DNA polymerase-Rep helicase fusion protein. These cells were picked from a transformation plate, propagated in liquid for ten generations to accumulate mutations and then plated onto kanamycin-containing media for selection.
KanR* reversion assay was used. Three transformations were carried out, all into the host cell for TADR, as shown in FIG. 2C: the helper plasmid with the wildtype T5 polymerase co-transformed with the target plasmid; the helper plasmid with the error-prone T5 polymerase mutant, with the target plasmid without the recognition and termination sequences; the helper plasmid with the error-prone T5 polymerase mutant, with the target plasmid. Transformant colonies were selected on LB agar plates supplemented with 15 ng/μl chloramphenicol and 50 ng/μl ampicillin and inoculated to a liquid LB cultures with chloramphenicol and ampicillin. After overnight growth, 50 μl culture from each sample was plated on LB plates supplemented with 30 ng/μl kanamycin. After 16 h incubation at 37° C., colonies were counted.

[2] = tested on: bacteria lacking endogenous Rep helicase; test: assay of sensitivity to nalidixic acid (Rep helicase activity); assay type: cell-based, E. coli; settings: 2.5 ng/μl nalidixic acid; rep- cells with helper plasmid
Protocol: The Rep helicase activity of the T5 DNA polymerase-Rep helicase fusion was measured by its ability to alleviate growth retardation caused by nalidixic acid in a strain lacking endogenous Rep helicase (Henderson et al., PLOS ONE, 10 (5): e0128092, (2015)). Bacteria normally tolerate low levels of nalidixic acid, but bacteria lacking endogenous Rep helicase grow more slowly because nalidixic acid inhibits DNA gyrase and topoisomerase.
Assay of sensitivity to nalidixic acid was used(Henderson et al., PLOS ONE, 10 (5): e0128092, (2015)). Three cell lines were prepared, namely TADR cells modified to have intact chromosomal rep, TADR cells (rep-) and TADR cells (rep-) transformed with helper plasmid (expressing the fusion protein). A Rep gene knockout mutation was P1-transduced from Keio-collection(Baba et al., Mol Syst Biol, 2 2006.0008-2006.0008, (2006)) into the host cell for using standard technique of molecular cloning(Green, (2012)). The helper plasmid was transformed into this rep-cell and selected on LB agar plate supplemented with 50 ng/μl ampicillin. From this cell line together with other two—the host cell for, its rep-derivative, single colonies were inoculated into liquid LB culture (ampicillin was added to cultures of the first cell line). […]

DNA = settings: cited from earlier work
primed DNA substrate [3] = test: association of DNA polymerase with primed DNA substrate; assay type: binding; settings: local effective concentration of polymerase 0.2-0.6 mM; kon of T7 assumed
Protocol: The artificial replisome must simultaneously unwind DNA and copy the exposed strand to prevent degradation of the exposed ssDNA, which causes genetic instability. In addition, DNA synthesis must avoid premature termination within the target region. Connecting Rep helicase and T5 DNA polymerase with a flexible linker increases the local effective concentrations to an estimated 0.2-0.6 mM(Li et al., Protein Sci, 27 (9): 1600-1610, (2018)) in order to achieve both of these goals. The CisA protein recruits Rep helicase to the target region and stabilizes it. Rep helicase unwinds DNA at about 144 base-pairs/s (Arslan et al., Science (New York, N.Y.), 348 (6232): 344-347, (2015)), so DNA synthesis must initiate at least that fast to proceed simultaneously. The bimolecular association rate constant of T7 DNA polymerase (kon) for primed DNA substrate is 3.6×10^7M^−1s^−1 (Luo et al., Proceedings of the National Academy of Sciences, 104 (31): 12610-12615, (2007)) and it was assumed T5 DNA polymerase associates at a similar rate. If the local effective concentration of polymerase is 0.2-0.6 mM, then the rate of association is 7200-22,000 s^−1, which far exceeds the rate of unwinding. […]

[4] = six-His tag linked to C-terminus; cited from earlier work
primed DNA substrate [5] = settings: cited from earlier work

With “T5 DNA polymerase-Rep helicase fusion protein: T5 DNA polymerase (D164A, E166A, A593R) linked by 81-amino acid linker to Rep helicase; SEQ ID NO:22” the “frequency of kanamycin-resistant colonies, fold over control whose target plasmid was without initiation sequence” value ([1]; LB) was 4.2 fold, the “frequency of kanamycin-resistant colonies, fold increase over control with wildtype T5 DNA polymerase” value ([1]; LB, wildtype Rep, T5 D164A, E166A, A593R) was 128 fold and the “increase in mutation rate from engineered 5′ UTR” value ([1]; stem-loop designed into 5′ UTR of the fusion gene) was “up to 150 fold”. For the same molecule, the “effect on nalidixic acid inhibition of growth” value [2] was “partially alleviated”.

In the case of “E. coli PolA: E. coli DNA polymerase I, slower than Rep helicase”, the “speed of DNA unwinding or DNA synthesis” value (DNA) is listed as about 15 base-pairs/s.

For “fusion containing RepΔC33: fusion protein in which the 33 C-terminal amino acids of Rep helicase were deleted; SEQ ID NO:10”, the “frequency of kanamycin-resistant colonies, fold over control whose target plasmid was without initiation sequence” value ([1]; LB) was 67 fold and the “increase in selectivity from RepΔC33 versus wildtype Rep” value ([1]; LB) was 16 fold.

B1: I308V: self-evolved variant of error-prone T5 DNA polymerase with single I308V substitution; SEQ ID NO:3 (protein)
chain: MKIAVVDKALNNTRYDKHFQLYGEEVDVFHMCNEKLSGRLLKKHITIGTPENPFDPNDYDFVILVGAEPFLYFAGKKGIGDYTGKRVEYNGYANWIASISPAQLHFKPEMKPVFDATVENIHDIINGREKIAKAGDYRPITDPDEAEEYIKMVYNMVIGPVAFASATSALYCRDGYLLGVSISHQEYQGVYIDSDCLTEVAVYYLQKILDSENHTIVFHNLKFDMHFYKYHLGLTFDKAHKERRLHDTMLQHYVLDERRGTHGLKSLAMKYTDMGDYDFELDKFKDDYCKAHKIKKEDFTYDLIPFDVMWPYAAKDTDATIRLHNFFLPKIEKNEKLCSLYYDVLMPGCVFLQRVEDRGVPISIDRLKEAQYQLTHNLNKAREKLYTYPEVKQLEQDQNEAFNPNSVKQLRVLLFDYVGLTPTGKLTDTGADSTDAEALNELATQHPIAKTLLEIRKLTKLISTYVEKILLSIDADGCIRTGFHEHMTTSGRLSSSGKLNLQQLPRDESIIKGCVVAPPGYRVIAWDLTTAEVYYAAVLSGDRNMQQVFINMRNEPDKYPDFHSNIAHMVFKLQCEPRDVKKLFPALRQAAKRITFGILYGSGPAKVAHSVNEALLEQAAKTGEPFVECTVADAKEYIETYFGQFPQLKRWIDKCHDQIKNHGFIYSHFGRKRRLHNIHSEDRGVQGEEIRSGFNAIIQSASSDSLLLGAVDADNEIISLGLEQEMKIVMLVHDSVVAIVREDLIDQYNEILIRNIQKDRGISIPGCPIGIDSDSEAGGSRDYSCGKMKKQHPSIACIDDDEYTRYVKGVLLDAEFEYKKLAAMDKEHPDHSKYKDDKFIAVCKDLDNVKRILGA
With B1 the “increase in mutation rate (kanamycin-resistant CFU) from self-evolution / I308V” value ([1]; versus ancestor error-prone T5 DNA polymerase) was 3.2 fold.

B2: T5 DNA polymerase: DNA polymerase of bacteriophage T5, NCBI YP_006950.1, SEQ ID NO:1 (protein)
chain: MKIAVVDKALNNTRYDKHFQLYGEEVDVFHMCNEKLSGRLLKKHITIGTPENPFDPNDYDFVILVGAEPFLYFAGKKGIGDYTGKRVEYNGYANWIASISPAQLHFKPEMKPVFDATVENIHDIINGREKIAKAGDYRPITDPDEAEEYIKMVYNMVIGPVAFDSETSALYCRDGYLLGVSISHQEYQGVYIDSDCLTEVAVYYLQKILDSENHTIVFHNLKFDMHFYKYHLGLTFDKAHKERRLHDTMLQHYVLDERRGTHGLKSLAMKYTDMGDYDFELDKFKDDYCKAHKIKKEDFTYDLIPFDIMWPYAAKDTDATIRLHNFFLPKIEKNEKLCSLYYDVLMPGCVFLQRVEDRGVPISIDRLKEAQYQLTHNLNKAREKLYTYPEVKQLEQDQNEAFNPNSVKQLRVLLFDYVGLTPTGKLTDTGADSTDAEALNELATQHPIAKTLLEIRKLTKLISTYVEKILLSIDADGCIRTGFHEHMTTSGRLSSSGKLNLQQLPRDESIIKGCVVAPPGYRVIAWDLTTAEVYYAAVLSGDRNMQQVFINMRNEPDKYPDFHSNIAHMVFKLQCEPRDVKKLFPALRQAAKAITFGILYGSGPAKVAHSVNEALLEQAAKTGEPFVECTVADAKEYIETYFGQFPQLKRWIDKCHDQIKNHGFIYSHFGRKRRLHNIHSEDRGVQGEEIRSGFNAIIQSASSDSLLLGAVDADNEIISLGLEQEMKIVMLVHDSVVAIVREDLIDQYNEILIRNIQKDRGISIPGCPIGIDSDSEAGGSRDYSCGKMKKQHPSIACIDDDEYTRYVKGVLLDAEFEYKKLAAMDKEHPDHSKYKDDKFIAVCKDLDNVKRILGA
modifications: Escherichia virus T5
In the case of B2, the rate of association (primed DNA substrate [3]) is listed as 7200-22,000 s^−1 and the “effect of six-His tag on polymerase activity” value [4] is listed as “did not interfere with polymerase activity”.

B3: T7 DNA polymerase: bacteriophage T7 DNA polymerase, used in the initial failed TADR (protein, UniProt P00581 1-704, looked up)
DNA-directed DNA polymerase: MIVSDIEANALLESVTKFHCGVIYDYSTAEYVSYRPSDFGAYLDALEAEVARGGLIVFHNGHKYDVPALTKLAKLQLNREFHLPRENCIDTLVLSRLIHSNLKDTDMGLLRSGKLPGKRFGSHALEAWGYRLGEMKGEYKDDFKRMLEEQGEEYVDGMEWWNFNEEMMDYNVQDVVVTKALLEKLLSDKHYFPPEIDFTDVGYTTFWSESLEAVDIEHRAAWLLAKQERNGFPFDTKAIEELYVELAARRSELLRKLTETFGSWYQPKGGTEMFCHPRTGKPLPKYPRIKTPKVGGIFKKPKNKAQREGREPCELDTREYVAGAPYTPVEHVVFNPSSRDHIQKKLQEAGWVPTKYTDKGAPVVDDEVLEGVRVDDPEKQAAIDLIKEYLMIQKRIGQSAEGDKAWLRYVAEDGKIHGSVNPNGAVTGRATHAFPNLAQIPGVRSPYGEQCRAAFGAEHHLDGITGKPWVQAGIDASGLELRCLAHFMARFDNGEYAHEILNGDIHTKNQIAAELPTRDNAKTFIYGFLYGAGDEKIGQIVGAGKERGKELKKKFLENTPAIAALRESIQQTLVESSQWVAGEQQVKWKRRWIKGLDGRKVHVRSPHAALNTLLQSAGALICKLWIIKTEEMLVEKGLKHGWDGDFAYMAWVHDEIQVGCRTEEIAQVVIETAQEAMRWVGDHWNFRCLLDTEGKMGPNWAICH
For B3, the targeted mutagenesis ([1]; TADR implemented with T7 DNA polymerase) is given as “no targeted mutagenesis was seen” and the “bimolecular association rate constant (kon)” value (primed DNA substrate [5]) is given as 3.6e+07 M⁻¹ s⁻¹.
